# Results: patent US20080194507A1, “Defibrotide An/Or Oligodeoxyribonucleotides For Treating Angiogenesis-Dependent Tumors” (priority 2005, published 2008)
# Assays:
# [1] = system: human umbilical vene (HUVEC) endothelial cells; experiment: Matrigel tube formation assay of HUVEC; type: cell-based; conditions: single addition, 10 μg/mL, 7 days
# Method: (§1) The Matrigel™ assay is one of the most popular and widely used in vitro angiogenesis assays (22). Matrigel™ is a semisolid synthetic mixture of extracellular matrix proteins which simulate the matrix that physiologically exist beneath the endothelial cell wall of a blood vessel. When the cells of question are seeded onto this matrix in microscopic chamber slides, they are activated to form tubular structures in 3-7 days, but only in the case that they have an endothelial phenotype. Therefore, this assay is suitable to show the potential capacity of cells to give rise to a tumor vasculature.
# (§2) TuDC-ELC and mature, differentiated endothelial cells, [human umbilical vene (HUVEC) or microvascular endothelial cells (HMEC) as “stable” controls] were incubated in the presence or absence of oligotide or Defibrotide (10 μg/mL each) for 7 days.
# [2] = system: transdifferentiating ELC (TuDC-ELC); experiment: Matrigel tube formation assay of TuDC-ELC; type: cell-based, human; conditions: for tube formation of TuDC-ELC in Matrigel: 10 μg/mL, 7 days, clinical and subclinical concentrations
# Description: We have recently developed a model for an alternative pathway of tumor angiogenesis. […] These endothelial-like cells (ELC) can transdifferentiate from tumor-associated dendritic cells under specific culture conditions (11). Briefly, monocytes are elutriated from leukapheresis products of healthy human blood donors and cultured in the presence of granulocyte-macrophage-colony stimulating factor (GM-CSF) and interleukin 4 (IL-4) to stimulate the differentiation of dendritic cells (DC). In addition, cells are treated with a cocktail specifically released by tumor cells (M-CSF, IL.6 and lactate, Gottfried et al., manucript submitted) to promote the outgrowth of tumor-associated dendritic cells (TuDC).
# In addition, they are able to form tube-like structures in Matrigel™, an in vitro assay of angiogenesis.
# as §1, §2
# By the help of a complimentary software from the NIH (Image J, http://rsb.info.nih.gov/ij/), we are able to quantify these effects, the total length of tubes and the area of the photograph are assessed, the microvascular density (MVD) is then given in total length/area [pix-1].
# human gastric carcinoma = experiment: Dorsal skin chamber assay, human gastric carcinoma mouse model (Xenograft system); type: in vivo; conditions: first data; treated vs control tumors
# Description: We are currently performing a dorsal skin chamber assay (14) that investigates the effect of defibrotide in a highly vascularized human gastric carcinoma mouse model (Xenograft system). […] This set of experiments will be reproduced in due time.
# [3] = system: activated p70S6 kinase (p-p70S6); experiment: Western Blot analyses of activated p70S6 kinase; type: cell-based; conditions: preliminary evidence
# [4] = system: microvascular endothelial cells (HMEC); experiment: Matrigel tube formation assay of HMEC; type: cell-based, human; conditions: single addition, 10 μg/mL, 7 days
# Method: as §1, §2
# [5] = system: human microvascular endothelial cells; experiment: Angiogenesis assay of microvascular endothelial cells vascularizing through a layer of dermal fibroblasts; type: cell-based
# Method: The aortic ring assay investigates macrovascular endothelial cells. But often, the tumor vasculature consists of microvascular endothelial cells. Therefore, a third in vitro angiogenesis assay was performed on the basis of microvascular endothelial cells vascularizing through a layer of dermal fibroblasts after 9-11 days of culture. These vessel-like structures can subsequently be visualized by staining for CD31 and vWF.
Substance,tube formation potential [1],tube formation of TuDC-ELC in Matrigel [2],"microvascular density (MVD), total length/area ([2]; TuDC-ELC, p=0.02, TTEST, FIG. 1B)",microvascular density (MVD) of tumors (human gastric carcinoma),effect on activated p70S6 kinase (p-p70S6) [3],tube formation potential [4],"angiogenesis of human microvascular endothelial cells ([5]; daily application, 9-11 days of culture, CD31 and vWF staining)","most effective concentration ([5]; human microvascular endothelial cells, FIGS. 3A and B)"
defibrotide,not affected,inhibit tube formation,downregulates,lower than that of control tumors,downregulating effect,not affected,block angiogenesis,around 10 μg/mL
oligotide,,inhibit tube formation,,,,,,
